{
  "source": "patent US20100041756A1",
  "about": "“METHOD OF MODULATING B CELL FUNCTIONING” (priority 2004, published 2010)",
  "key": {"[1]": {"system": "DBA/1 mice immunised with type II collagen in CFA", "assay": "Development of collagen-induced arthritis, treatment from the day of immunisation (Example 4)", "type": "in vivo, mouse", "method": "Type II collagen was purified from bovine cartilage, as described [Williams, R. O. 2004, Methods Mol. Med. 98:207-216] and solubilized by stirring overnight at 4° C. in acetic acid (0.1M) or Tris buffer (0.05 M Tris, containing 0.2 M NaCl, pH 7.4). Tranilast was synthesised by Angiogen Pharmaceuticals Pty. Ltd. For in vivo studies Tranilast was dissolved at a maximum concentration of 10 mg/ml in 1% sodium bicarbonate by heating for 1 h at 70° C. Upon cooling, an emulsion was formed. For in vitro studies Tranilast was dissolved in dimethyl sulphoxide (DMSO). 3-Hydroxy-anthranilic acid (3-HAA) was purchased from Sigma (Poole, UK) and dissolved in PBS.\nMale DBA/1 mice (8-12 weeks old) were immunized intradermally at the base of the tail with bovine type II collagen (200 μg) emulsified in complete Freund's adjuvant (CFA; Difco, West Moseley, UK). Arthritis was monitored clinically using the following scoring system: 0=normal, 1=slight swelling and/or erythema, and 2=pronounced oedematous swelling. Each limb was graded, giving a maximum score of 8 per mouse. In addition, paw-swelling was measured using calipers.\nELISA plates (Nunc, Uxbridge, UK) were coated with 2 μg/ml of bovine CII dissolved overnight in Tris Buffer (0.05 M Tris, containing 0.2 M NaCl, pH 7.4) blocked with 2% bovine serum albumin (BSA) and then incubated with serial dilutions of test sera. A reference sample was included on each plate. Bound total IgG, IgG1 or IgG2a was detected by incubation with HRP-conjugated sheep anti-mouse IgG, IgG1 or IgG2a, followed by TMB substrate. Optical density was measured at 450 nm.\nIn order to assess its anti-arthritic potential, Tranilast was injected into DBA/1 mice (200 mg/kg/day) from the day of immunisation with type II collagen in CFA. By day 28, 5 of 7 (71%) vehicle treated mice had developed arthritis of moderate severity (clinical score 2.8±0.6), whilst 1 of 7 (14%) Tranilast-treated mice had developed mild arthritis (clinical score 1)."}, "[2]": {"system": "anti-type II collagen IgG1", "assay": "Inhibition of anti-type II collagen antibody production in vivo (Example 5)", "design": "species or system mouse", "method": "Female DBA/1 mice (10 weeks of age) were immunised intraperitoneally on day 1 with 100 μg bovine type II collagen, dissolved in 0.05M Tris/0.2M NaCl, pH 7.4). Tranilast was dissolved in 1% sodium bicarbonate (10 mg/ml) by heating for 1 h at 70° C. Upon cooling, an emulsion was formed. Tranilast was administered intraperitoneally for three weeks (starting on day 1) at a dose of 400 mg/kg, every 2-3 days. Controls received vehicle alone. There were six mice per group.\nOn day 28 mice were bled and serum levels of anti-type II collagen IgG1 and IgG2a were measured by ELISA, as follows:\n1. Polystyrene microtitre plates (Immulon 2, Dynatech Laboratories) were coated with DEAE-purified bovine type II collagen, dissolved in 0.2M NaCl/0.05M Tris, pH 7.4 (5 μg/ml), overnight at 4° C. 2. The plates were washed in phosphate-buffered saline (PBS), then blocked with BSA in PBS (2% w/v) for 1 h at room temperature. 3. After washing in PBS, containing Tween 20 (0.05% v/v), the sera were serially diluted in PBS/Tween, added to the plates and incubated for 2 h at room temperature. 4. After washing in PBS/Tween, bound IgG was detected by incubating goat anti-mouse IgG1 or anti-mouse IgG2a-HRP conjugate ( 1/1000) for 2 h at room temperature. 5. Develop colour reaction using TMB substrate. Stop reaction with 4.5NH2SO4 6. The plates were read at 450 nm on a microtitre plate reader."}, "IL-10": {"system": "IL-10", "assay": "Serum IL-10 in mice with established CIA (ELISA)", "type": "in vivo, mouse", "details": "10 days treatment (FIG. 7)", "method": "Mice with established CIA were treated with 3,4-DAA or vehicle (n=7) for 10 days (see FIG. 6), then bled. IL-10 in the sera was measured by ELISA.\nInguinal lymph nodes were excised from Tranilast-treated and control mice. Alternatively, inguinal lymph nodes were removed from untreated arthritic mice (day 1-5 of arthritis) and Tranilast was added in vitro. In both cases, LNC were cultured in RPMI 1640 containing FCS (10% v/v), 2-mercaptoethanol (20 μM), L-glutamine (1% w/v), penicillin (100 U/ml) and streptomycin (100 μg/ml) in the presence or absence of type II collagen (50 μg/ml). Secreted cytokines (IFN-γ, IL-5, TNFα and IL-10) were measured after 72 h. by ELISA. In brief, 96 well ELISA plates were coated with the respective capture antibody, blocked with bovine serum albumin (2% w/v), and then incubated with LNC culture supernatants (neat) overnight at 4° C. After washing, bound cytokines were detected using biotinylated detect antibodies. A standard curve was generated using known concentrations of the appropriate recombinant cytokine and the concentrations of cytokines present in culture supernatants were estimated by reference to the standard curve."}, "[3]": {"details": "individual mice, day 28, 400 mg/kg i.p. every 2-3 days for three weeks"}},
  "note": "“And” between values parts separate entries of the source, which are not always exact repeats. Identical values can stand only once.",
  "data": [
    {"smiles": "COc1ccc(/C=C/C(=O)Nc2ccccc2C(=O)O)cc1OC", "note": "[Tranilast, 2-[[3-(3,4-dimethoxyphenyl)-1-oxo-2-propenyl]amino]benzoic acid]", "values": [
      {"measurement": "anti-collagen IgG1 or IgG2a levels in sera", "setting": "[1]; 200 mg/kg/day from the day of immunisation", "result": "no change"},
      {"measurement": "mice that had developed arthritis by day 28", "setting": "[1]; 200 mg/kg/day from the day of immunisation, 1 of 7 mice", "result": 14, "unit": "%"},
      {"measurement": "clinical score", "setting": "[1]; day 28, 200 mg/kg/day from the day of immunisation", "result": 1},
      {"measurement": "Levels of anti-type II collagen IgG1", "setting": "[2]; group comparison, P=0.03, Mann Whitney test", "result": "significantly higher in the control group versus the Tranilast treated group"},
      {"measurement": "OD450 (dilution 1/100), anti-type II collagen IgG1", "setting": "[2]; [3]", "result": "0.07 and 0.06 (2×) and 0.31 and 0.08 (2×)"},
      {"measurement": "Titre (reciprocal), anti-type II collagen IgG1", "setting": "[2]; [3]", "result": "<50 (4×) and <1/50 and 150"},
      {"measurement": "circulating IL-10 levels", "setting": "IL-10", "result": "dose-dependent increase"},
      {"measurement": "circulating IL-10 levels", "setting": "IL-10; listed as 3,4-DAA", "result": "increased IL-10 levels"}
    ]}
  ]
}
